Experimental data as given in patent US11918650B2, “Pharmaceutical composition comprising bispecific antibody constructs for improved storage and administration” (AMGEN INC., priority 2017, dated 2024).

Tests used:
[1] = tested on: CD19×CD3 bispecific antibody construct; assay: Preservative compatibility, percent HMW species by SEC-HPLC at pH 4; assay type: physicochemical; conditions: CD19×CD3 bispecific antibody construct 0.8 mg/mL, 10 mM glutamate pH 4.0, 9% sucrose, 0.01% polysorbate 80; preservative conc. of Table 4; 25° C., 14 days
Procedure: In order to investigate the compatibility of known preservatives with a representative bispecific antibody construct according to the present invention, CD19×CD3 bispecific antibody construct was formulated in the presence of respective known preservatives with parameters as set out in Table 4.
The chosen preservative concentrations reflected standard concentrations employed in the art. The respective formulations were stored at 25° C. for 14 days and examined on day 0, 1, 3, 7 and 14 by size exclusion chromatography (SEC-HPLC).

[2] = Frozen stability at −20° C. over 4 weeks, HMW species (FIG. 9, 10); assay type: physicochemical; conditions: DLL3×CD3, pH 4
[3] = tested on: Micrococcus luteus (ATCC 4698); assay: Microbial challenge study in IV bags; assay type: cell-based; conditions: 20-25° C.
Procedure: (§1) This example was a microbial challenge study in support of CD19×CD3 bispecific antibody construct drug product (DP) administered via an intravenous (IV) bag. The study was performed to evaluate the ability of different concentrations (0.5%-0.74%) of benzyl alcohol (BeOH) to reduce or eliminate microbial growth in IV bags holding blinatumomab infusion solution containing benzyl alcohol, CD19×CD3 bispecific antibody construct DP, and intravenous solution stabilizer (IVSS) kept at 20-25° C. for up to 14 days.
(§2) The study was carried out to evaluate the growth of six different microorganisms in IV bags filled with 109 mL of CD19×CD3 bispecific antibody construct infusion solution containing benzyl alcohol (BeOH, at a final concentration of 0.0%, 0.5%, 0.6% or 0.74%), CD19×CD3 bispecific antibody construct DP, and IVSS. The prepared IV bags were held at 20-25° C. for up to 14 days.
(§3) The bacteria and yeast selected for the study are representative of known human pathogens commonly isolated from nosocomial infections. These microorganisms include Candida albicans (ATCC 10231), Enterobacter cloacae (ATCC 13047), Escherichia coli (ATCC 8739), Micrococcus luteus (ATCC 4698), Pseudomonas aeruginosa (ATCC 9027), and Staphylococcus aureus (ATCC 6538).
(§4) Test Articles: The test articles assessed in the study were blinatumomab infusion solution filled in IV bags containing 1.91 μg/mL conc. blinatumomab in a total volume of 109 mL/bag. The solution was made up by the addition of 2.2 mL IVSS, 16.8 mL of pooled reconstituted blinatumomab DP (210 μg), and a combined total volume of 90 mL of saline solution and saline solution with 0.9% benzyl alcohol (basaline). The four different levels of BeOH (0.0%, 0.5%, 0.6% and 0.74%) assessed in the study were achieved by adding different amounts of saline and basaline. For example, the bag with 0.0% BeOH (positive control) was prepared by adding 90 mL of saline, while the bag with 0.6% BeOH was prepared by adding 18 mL saline and 72 mL 0.9% bsaline, to the 2.2 mL IVSS and 16.8 mL blinatumomab DP. Refer to Appendix A for more details. Note that the illustration for 0.0% BeOH positive control in FIG. 1 (Schematic of IV Bag Preparation) of Appendix A of this report and in the same illustration in FIG. 4 of Appendix D inadvertently stated the final BeOH concentration to be 0.5%, instead of 0.0%. This is a typographic error and has no impact on the study outcome.
(§5) A total of 24 CD19×CD3 bispecific antibody construct infusion solution filled IV bags were assessed to evaluate the effect of four levels of benzyl alcohol on the aforementioned six different microorganisms (6×4=24). An approximate 1 mL of inoculum containing <1×10^4 CFU microbes was inoculated through the injection port into each bag that yielded an initial microbial load at ˜1×10^2 CFU/mL. After inoculation, the sampling port on the bag was cleaned with sterile IPA and the bag was mixed briefly and then incubated at 20-25° C.
(§6) Sampling and titration procedures: At each time point of 0-hour, 4-day, 8-day, 10-day, 12-day and 14 day, a 3 mL aliquot was collected from each assessed bag and titrated.
(§7) Sample titration was performed by membrane filtration in duplicate of 1 mL aliquots for each timed sample. Additional dilutions were performed to obtain countable results (<300 CFU/plate).

[4] = tested on: Enterobacter cloacae (ATCC 13047); assay: Microbial challenge study in IV bags; assay type: cell-based; conditions: 20-25° C.
Procedure: as §1, §2, §3, §4, §5, §6, §7

[5] = tested on: Escherichia coli (ATCC 8739); assay: Microbial challenge study in IV bags; assay type: cell-based; conditions: 20-25° C.
Procedure: as §1, §2, §3, §4, §5, §6, §7

[6] = tested on: Staphylococcus aureus (ATCC 6538); assay: Microbial challenge study in IV bags; assay type: cell-based; conditions: 20-25° C.
Procedure: as §1, §2, §3, §4, §5, §6, §7

[7] = tested on: Candida albicans (ATCC 10231); assay: Microbial challenge study in IV bags; assay type: cell-based; conditions: all three levels of BeOH (0.5%, 0.6%, 0.74%) in blinatumomab infusion solution; 20-25° C.
Procedure: as §1, §2, §3, §4, §5, §6, §7

[8] = tested on: Pseudomonas aeruginosa (ATCC 9027); assay: Microbial challenge study in IV bags; assay type: cell-based; conditions: 20-25° C.
Procedure: as §1, §2, §3, §4, §5, §6, §7

[9] = tested on: CD19×CD3 bispecific antibody constructs; assay: Denaturation assay (guanidinium chloride) with fluorescence detection; assay type: physicochemical; conditions: 2.5 hours at 25° C., pH 7; excitation 280 nm, emission 300 to 400 nm
Procedure: FIG. 4: Denaturation diagram of CD19×CD3 bispecific antibody constructs at a concentration of 1 mg/ml in presence or absence of preservative benzyl alcohol as determined by fluorescence spectrometry […].
Improved stability of a representative bispecific antibody construct of the present invention conferred by a preservative such as benzyl alcohol was further examined by a denaturation assay using fluorescence as detection means. Experimental conditions comprised guanidinium chloride as denaturant which concentration was plotted on the x-axis (see FIG. 4). Incubation time was 2.5 hours at 25° C. at near-physiologic pH 7. Fluorescence excitation was set to 280 nm and the emission scan was run from 300 to 400 nm. The percentile denaturated fraction was calculated from the fluoresces assay as standard in the art. The result can be seen in FIG. 4. The grey curve represents the formulation comprising benzyl alcohol, the black curve the formulation without preservative. […] This means that it takes more denaturant to unfold this region, i.e. the CD3 domain, which translates into improved stability conferred by the preservative.

[10] = tested on: CDR-H3 region (YISYW) of anti-CD3 domain; assay: Hydrogen-deuterium exchange (HDX) mass spectrometry, effects of citrate and benzyl alcohol; assay type: physicochemical; conditions: addition to Tris-phosphate pH 6.0, 50 mM citrate, 0.9% benzyl alcohol
Description: Hydrogen-deuterium exchange (HDX) is a chemical reaction in which a covalently bonded hydrogen atom is replaced by a deuterium atom, or vice versa. It can be applied most easily to exchangeable protons and deuterons, where such a transformation occurs in the presence of a suitable deuterium source, without any catalyst. The method gives information about the solvent accessibility of various parts of the molecule, and thus the tertiary structure of the protein.
Model anti-FAPα domain, isolated anti-CD3 domain (I2C, as typically used throughout all example bispecific antibody constructs), CD33×CD3 bispecific antibody construct and EGFRvIII×CD3 bispecific antibody construct were examined. For FAPα, anti-CD3 domain, and CD33×CD3 bispecific antibody construct, the experimental procedure was same. Firstly, the protein samples were dialyzed into Tris-phosphate buffer (35 mM Tris, 17.5 mM phosphate, pH 6.0) and (35 mM Tris, 17.5 mM phosphate, 50 mM citrate, pH 6.0), respectively. The protein concentration was adjusted to 0.3 mg/mL after dialysis. […] Thirdly, the HDX reaction was quenched after 10s, 1 min, 10 min, 1 hr, 4 hr, and 12 hr, and then the quenched protein samples were analyzed by mass spectrometry. […] Thirdly, the HDX reaction was quenched after 10s, 10 min, 2 hr, 8 hr, 16 hr, 24 hr, and then the quenched protein samples were analyzed by mass spectrometry. […]

[11] = 0.5% or 0.6% BeOH in blinatumomab infusion solution
[12] = 0.74% BeOH in blinatumomab infusion solution
[13] = 0.5%, 0.6% and 0.74% BeOH in blinatumomab infusion solution, inoculum 100 CFU/mL
[14] = all three assessed concentrations (0.5%, 0.6%, 0.74%), up to 14 days

C[CH2][Hg][S]c1ccccc1C(=O)[O-].[Na+] [Thimerosal, thimerosal]
percent high molecular weight (HMW) species over time [1]: slight increase in HWM over time

OCc1ccccc1 [benzyl alcohol]
benzyl alcohol concentration at which stabilizing effect on frozen stability is best [2]: above 0.1% | day on which challenged M. luteus was unrecoverable [3, 11]: 14 days | day on which challenged M. luteus was unrecoverable [3, 12]: 8 days | day from which no E. cloacae was recoverable [4, 13]: 10 days | growth of E. cloacae [4, 14]: completely inhibited | day from which no E. coli was recoverable [5, 13]: 10 days | growth of E. coli [5, 14]: completely inhibited | day on which challenged S. aureus inoculum became unrecoverable [6, 11]: 8 days | day on which challenged S. aureus inoculum became unrecoverable [6, 12]: 4 days | day on which challenged C. albicans was unrecoverable [7]: 8 days | day from which no P. aeruginosa was recoverable [8, 13]: 4 days | growth of P. aeruginosa [8, 14]: completely inhibited | denaturation curve (denaturated fraction vs guanidinium chloride) with benzyl alcohol versus without preservative [9]: shift to the right in the bottom portion of the curve | conformational dynamics of the region of residues 366-370 (YISYW) versus formulation of Tris-phosphate [10]: increases the conformational dynamics of this region

O=C(O)CC(O)(CC(=O)O)C(=O)O [citrate]
conformational dynamics of the region of residues 366-370 (YISYW) versus formulation of Tris-phosphate [10]: reduces the conformational dynamics of this region

COC(=O)c1ccc(O)cc1 [methylparabene, methylparaben]
percent high molecular weight (HMW) species over time [1]: decrease in the percent high molecular weight (HMW) species over time

Oc1ccccc1 [phenol]
percent high molecular weight (HMW) species over time [1]: HMW values overall remain constant
